ChEMBL document CHEMBL5518235, “Identification of Novel Series of Potent and Selective Relaxin Family Peptide Receptor 1 (RXFP1) Agonists” (J Med Chem, 2024)
pEC50: −log10 of the molar value. Active and inactive are the calls of the source. The calls are words filed in the database; no cut-off is given here.

What was measured:
Relaxin receptor 1 = molecular target: T1, Relaxin receptor 1 (Homo sapiens, UniProt Q9HBX9); experiment: (§1) Agonist activity at human RXFP1 expressed in T-Rex-CHO-K1 cells assessed as stimulation of cAMP production incubated for 45 mins by HTRF assay; format: functional, cell-based
T1 sequence (Q9HBX9 whole entry): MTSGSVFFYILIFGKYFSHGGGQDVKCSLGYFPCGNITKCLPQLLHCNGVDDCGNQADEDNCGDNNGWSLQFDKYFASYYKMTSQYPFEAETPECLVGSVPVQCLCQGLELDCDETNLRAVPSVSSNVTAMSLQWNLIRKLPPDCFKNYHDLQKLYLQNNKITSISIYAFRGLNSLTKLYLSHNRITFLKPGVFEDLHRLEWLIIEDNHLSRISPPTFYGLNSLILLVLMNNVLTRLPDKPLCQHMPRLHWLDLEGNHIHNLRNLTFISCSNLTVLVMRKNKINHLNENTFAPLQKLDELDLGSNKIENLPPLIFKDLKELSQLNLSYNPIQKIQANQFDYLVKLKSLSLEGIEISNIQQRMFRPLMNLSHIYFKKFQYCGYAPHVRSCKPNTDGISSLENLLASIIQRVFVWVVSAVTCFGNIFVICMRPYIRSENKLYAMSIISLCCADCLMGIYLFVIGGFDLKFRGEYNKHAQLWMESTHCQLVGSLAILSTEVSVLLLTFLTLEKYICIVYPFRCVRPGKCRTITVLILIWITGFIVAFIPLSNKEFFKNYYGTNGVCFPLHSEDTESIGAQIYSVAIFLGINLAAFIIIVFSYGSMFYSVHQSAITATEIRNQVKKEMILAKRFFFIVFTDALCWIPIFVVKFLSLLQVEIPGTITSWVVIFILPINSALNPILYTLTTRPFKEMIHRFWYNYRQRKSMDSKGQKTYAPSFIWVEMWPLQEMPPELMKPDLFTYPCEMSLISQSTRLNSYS

[1] = molecular target: T2, Relaxin receptor 1 (Homo sapiens) (UniProt Q9HBX9); experiment: Agonist activity at human RXFP1 expressed in T-Rex-CHO-K1 cells assessed as stimulation of cAMP production by measuring maximal efficacy at 50 uM incubated for 45 mins by HTRF assay relative to control; format: functional, cell-based
T2 sequence (whole entry): T1 sequence (Q9HBX9 whole entry)

[2] = Metabolic stability in human liver microsomes assessed as unbound intrinsic clearance at 1 uM incubated for 30 mins in presence of NADPH by LC-MS/MS analysis; format: ADME, Microsome; conditions: 0.5 h
[3] = Metabolic stability in cryopreserved human hepatocytes assessed as intrinsic clearance measured per 10^6 cells at 1 uM after 120 mins by LC-MS/MS analysis; format: ADME, cell-based, Hepatocyte; conditions: cryopreserved hepatocytes, read-out: CLH
[4] = Metabolic stability in cryopreserved human hepatocytes assessed as unbound intrinsic clearance measured per 10^6 cells at 1 uM measured after 120 mins by LC-MS/MS analysis; format: ADME, cell-based, Hepatocyte; conditions: 2 h
[5] = Metabolic stability in human liver microsomes assessed as intrinsic clearance at 1 uM incubated for 30 mins in presence of NADPH by LC-MS/MS analysis; format: ADME, Microsome; conditions: for microsomal CLint at 1 µM: liver microsomes, read-out: CLH
[6] = Lipophilicity, logD of the compound in 1-octanol and phosphate buffer at pH 7.4 incubated for 3 hrs by shake flask method based LC/MS/MS analysis; format: physicochemical; conditions: for logD at 3 h: 1-octanol/phosphate buffer, pH 7.4
[7] = Metabolic stability in Han Wistar rat hepatocytes assessed as intrinsic clearance measured per 10^6 cells at 1 uM after 120 mins by LC-MS/MS analysis; format: ADME, cell-based, Hepatocyte; conditions: read-out: CLH
[8] = Metabolic stability in Han Wistar rat hepatocytes assessed as unbound intrinsic clearance measured per 10^6 cells at 1 uM after 120 mins by LC-MS/MS analysis; format: ADME, cell-based, Hepatocyte; conditions: 2 h
[9] = Clearance in Han Wistar rat at 0.76 micromol/kg, iv by LC-MS/MS analysis; format: ADME, organism-based; conditions: in vivo, dose 0.76 µmol/kg
[10] = Protein binding in rat plasma assessed as free fraction at 5 uM incubated for 18 hrs by equilibrium dialysis based LC-MS/MS analysis; format: ADME, cell-free
[11] = Half-life in Han Wistar rat at 0.76 micromol/kg, iv by LC-MS/MS analysis; format: ADME, organism-based; conditions: in vivo, dose 0.76 µmol/kg
[12] = Volume of distribution at steady state in Han Wistar rat at 0.76 micromol/kg, iv by LC-MS/MS analysis; format: ADME, organism-based; conditions: in vivo, dose 0.76 µmol/kg, read-out: Vdss
[13] = molecular target: T2, Relaxin receptor 1 (Homo sapiens); experiment: as §1; format: functional, cell-based
[14] = molecular target: T2, Relaxin receptor 1 (Homo sapiens); experiment: Agonist activity at human RXFP1 expressed in T-Rex-CHO-K1 cells assessed as stimulation of cAMP production at 50 uM incubated for 45 mins by HTRF assay relative to control; format: functional, cell-based; conditions: filed as agonist
[15] = molecular target: T3, Relaxin receptor 1 (Rattus norvegicus) (UniProt Q6R6I6); experiment: Agonist activity at rat RXFP1 expressed in T-Rex-CHO-K1 cells assessed as stimulation of cAMP production at 40 uM incubated for 45 mins by HTRF assay; format: functional, cell-based
T3 sequence (whole entry): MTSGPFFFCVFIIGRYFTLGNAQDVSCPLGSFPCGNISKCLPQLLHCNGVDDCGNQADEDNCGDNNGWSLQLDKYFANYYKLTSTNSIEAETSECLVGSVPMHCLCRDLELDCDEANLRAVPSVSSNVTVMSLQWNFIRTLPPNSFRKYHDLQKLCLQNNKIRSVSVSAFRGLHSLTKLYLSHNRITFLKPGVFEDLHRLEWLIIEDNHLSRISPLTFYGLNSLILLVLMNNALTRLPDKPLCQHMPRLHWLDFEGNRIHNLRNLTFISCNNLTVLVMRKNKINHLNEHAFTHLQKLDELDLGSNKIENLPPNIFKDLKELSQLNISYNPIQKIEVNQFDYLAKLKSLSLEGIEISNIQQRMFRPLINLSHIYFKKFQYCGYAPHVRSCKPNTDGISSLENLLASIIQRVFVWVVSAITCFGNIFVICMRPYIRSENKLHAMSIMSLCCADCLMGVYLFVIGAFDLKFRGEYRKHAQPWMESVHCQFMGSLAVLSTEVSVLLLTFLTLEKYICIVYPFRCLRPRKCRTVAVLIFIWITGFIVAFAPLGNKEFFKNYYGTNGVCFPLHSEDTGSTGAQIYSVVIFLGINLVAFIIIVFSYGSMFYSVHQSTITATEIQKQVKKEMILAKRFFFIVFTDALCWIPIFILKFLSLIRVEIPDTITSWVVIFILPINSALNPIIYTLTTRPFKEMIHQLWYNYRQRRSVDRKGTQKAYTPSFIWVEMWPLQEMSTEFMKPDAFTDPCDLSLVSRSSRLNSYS

pEC50 (Relaxin receptor 1)	Emax ([1]; filed as agonist) [%]	CL free [2]	hepatocyte CLint at 1 µM [3] [µL/min/1e6 cells]	CL free [4]	microsomal CLint at 1 µM [5] [µL/min/mg]	logD at 3 h [6]	Structure (SMILES)	further results
5.50	153	3.7 10^3uL/min/mg	6.7	0.96 10^3uL/min	12	> 4	COc1ccccc1C(=O)Nc1ccccc1C(=O)Nc1cccc(S(=O)(=O)C(F)(F)F)c1	–
6.80	103	314 µL/min/mg	32	1.3 10^3uL/min	16	3.6	COc1cc(F)c(-c2ccc(C(=O)O)cc2)cc1C(=O)N[C@@H]1[C@H]2CC[C@H](C2)[C@@H]1C(=O)Nc1cccc(S(=O)(=O)C(F)(F)F)c1	–
5.60	108	> 29 10^3uL/min/mg	8.9	1.8 10^3uL/min	44	4.4	COc1ccccc1C(=O)N[C@H]1[C@@H](C(=O)Nc2cccc(S(=O)(=O)C(F)(F)F)c2)[C@@H]2C=C[C@H]1C2	–
–	–	6.3 10^3uL/min/mg	–	–	242	4.4	COc1ccccc1C(=O)N[C@@H]1CCCC[C@@H]1C(=O)Nc1cccc(S(=O)(=O)C(F)(F)F)c1 (racemic)	Activity [13]: inactive
< 4.30	–	0.35 10^3uL/min/mg	–	–	140	3.5	COc1ccccc1C(=O)N[C@H]1[C@@H](C(=O)Nc2cccc(S(=O)(=O)C(F)(F)F)c2)[C@H]2C=C[C@@H]1C2 (racemic)	Emax [1]: 37%
–	–	0.98 10^3uL/min/mg	–	–	173	3.5	COc1ccccc1C(=O)N[C@H]1CN(C)C[C@H]1C(=O)Nc1cccc(S(=O)(=O)C(F)(F)F)c1 (racemic)	Activity [13]: inactive
6.80	103	< 64 µL/min/mg	5.4	277 µL/min	< 3	3.7	COc1cc(F)c(-c2cccc(C(=O)O)c2)cc1C(=O)N[C@H]1[C@@H](C(=O)Nc2cccc(S(=O)(=O)C(F)(F)F)c2)[C@@H]2C=C[C@H]1C2	–
6.60	109	92000 µL/min/mg	18	7.8 10^3uL/min	74	> 3.7	COc1cc(F)c(-c2ccc(S(N)(=O)=O)cc2)cc1C(=O)N[C@@H]1[C@H]2CC[C@H](C2)[C@@H]1C(=O)Nc1cccc(S(=O)(=O)C(F)(F)F)c1	–
5.50	100	12 10^3uL/min/mg	–	–	300	4.9	COc1ccccc1C(=O)N[C@@H]1[C@H](C(=O)Nc2cccc(S(=O)(=O)C(F)(F)F)c2)[C@H]2C=C[C@@H]1C2 (racemic)	–
5.76	87	> 38 10^3uL/min/mg	–	–	> 300	4.7	COc1ccc(-c2cccnc2)cc1C(=O)N[C@@H]1[C@H](C(=O)Nc2cccc(S(=O)(=O)C(F)(F)F)c2)[C@H]2C=C[C@@H]1C2 (racemic)	–

Continued, molecule first:

Structure (SMILES)	pEC50 (Relaxin receptor 1)	Emax ([1]; filed as agonist) [%]	CL free [2]	hepatocyte CLint at 1 µM [3] [µL/min/1e6 cells]	CL free [4]	microsomal CLint at 1 µM [5] [µL/min/mg]	logD at 3 h [6]	further results
COc1cc(F)c(-c2ccc(C(=O)O)cc2)cc1C(=O)N[C@H]1[C@@H](C(=O)Nc2cccc(S(=O)(=O)C(F)(F)F)c2)[C@@H]2C=C[C@H]1C2 (racemic) [listing 1 of 2 here]	6.70	–	121 µL/min/mg	–	–	6.3	3.4	hepatocyte CLint at 1 µM [7]: 16 µL/min/1e6 cells; CL free [8]: 457 µL/min; clearance [9]: 73 mL/min/kg; fraction unbound at 18 h, 5 µM [10]: 0.0031; half-life [11]: 22.2 min; Vd [12]: 0.92 L/kg
COc1cc(F)c(-c2ccc(C(=O)O)cc2)cc1C(=O)N[C@@H]1[C@H](C(=O)Nc2cccc(S(=O)(=O)C(F)(F)F)c2)[C@H]2C=C[C@@H]1C2	–	–	150 µL/min/mg	9.2	484 µL/min	9.9	3.8	Activity [13]: inactive
O=C(O)c1ccc(-c2cc(C(=O)N[C@H]3[C@@H](C(=O)Nc4cccc(S(=O)(=O)C(F)(F)F)c4)[C@@H]4C=C[C@H]3C4)ccc2F)cc1 (racemic)	< 4.30	–	–	–	–	–	–	Activity [14]: 57%
COc1cc(F)c(-c2ccc(C(=O)O)cc2)cc1C(=O)N[C@H]1[C@@H](C(=O)Nc2cccc(S(=O)(=O)C(F)(F)F)c2)[C@@H]2C=C[C@H]1C2	6.80	–	100 µL/min/mg	11.7	334 µL/min	–	–	CLH ([5]; microsomes, 0.5 h, 1 µM): 7.2 µL/min/mg; logD ([6]; octanol/water, pH 7.4, 3 h, 3 h): 3.8
COc1cc(F)c(-c2ccc(CC(=O)O)cc2)cc1C(=O)N[C@H]1[C@@H](C(=O)Nc2cccc(S(=O)(=O)C(F)(F)F)c2)[C@@H]2C=C[C@H]1C2 (racemic)	7.10	110	111 µL/min/mg	6.5	295 µL/min	4.6	3.2	–
COc1cc(F)c(-c2ncc(C(=O)O)s2)cc1C(=O)N[C@H]1[C@@H](C(=O)Nc2cccc(S(=O)(=O)C(F)(F)F)c2)[C@@H]2C=C[C@H]1C2 (racemic)	6.20	111	65 µL/min/mg	–	–	13	1.7	–
COc1cc(F)c(-c2ccc(C(=O)O)cc2)cc1C(=O)Nc1ccccc1C(=O)Nc1cccc(S(=O)(=O)C(F)(F)F)c1	6.70	115	< 333 µL/min/mg	11	3.9 10^3uL/min	< 3	> 3.9	–
COc1cc(F)c(-c2ccc(C(=O)O)cc2)cc1C(=O)N[C@H]1[C@@H](C(=O)Nc2cccc(S(=O)(=O)C(F)(F)F)c2)[C@@H]2C=C[C@H]1C2 (racemic) [listing 2 of 2 here]	–	92	–	–	–	–	–	Activity [15]: inactive
